Earlier results on one compound are cited in US20120078160A1, “METHOD AND APPARATUS FOR CANCER THERAPY” (Gradiant Research, LLC, priority 2009, published 2012).

By pKa is commonly meant the pH at which an ionisable group is half protonated. `O=c1[nH]cc(F)c(=O)[nH]1` [5FU, 5-fluorouracil]: the pKa is recorded as 7.93. Besides, the “Koct, octanol water partition coefficient” value (pH 7.4) was 0.129.
